This passage reports Ki results from ChEMBL document CHEMBL1155275, “Synthesis and characterization of 6-deoxy-6-fluoro-D-fructose as a potential compound for imaging breast cancer with PET” (Bioorg Med Chem, 2009).

Common to all, as to type: cell-based
In assay [1] the target is T1, Solute carrier family 2, facilitated glucose transporter member 2 (Homo sapiens, UniProt P11168).
T1 sequence (P11168 whole entry): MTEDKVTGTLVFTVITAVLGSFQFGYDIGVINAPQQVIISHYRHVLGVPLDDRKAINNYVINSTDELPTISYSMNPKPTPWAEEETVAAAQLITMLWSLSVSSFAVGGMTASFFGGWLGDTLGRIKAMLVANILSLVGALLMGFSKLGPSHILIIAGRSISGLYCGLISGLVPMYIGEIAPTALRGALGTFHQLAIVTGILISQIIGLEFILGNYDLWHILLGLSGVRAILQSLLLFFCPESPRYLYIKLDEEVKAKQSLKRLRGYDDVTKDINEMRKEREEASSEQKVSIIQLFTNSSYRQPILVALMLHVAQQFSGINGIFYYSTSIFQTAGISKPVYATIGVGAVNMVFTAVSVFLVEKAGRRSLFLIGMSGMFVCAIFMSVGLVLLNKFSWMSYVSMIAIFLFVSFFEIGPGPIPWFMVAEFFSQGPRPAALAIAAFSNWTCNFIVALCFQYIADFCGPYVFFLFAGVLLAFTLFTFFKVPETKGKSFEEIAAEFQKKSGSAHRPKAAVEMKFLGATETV
The assay is described as follows: Inhibition of GLUT2-mediated [14C]D-glucose uptake in human MDA-MB-231 cells by liquid scintillation counting.

Assay [2] addresses T1, Solute carrier family 2, facilitated glucose transporter member 2. The assay can be described thus: Inhibition of GLUT2-mediated [14C]D-glucose uptake in human MCF7 cells by liquid scintillation counting.
Assay [3] deals with T2, Solute carrier family 2, facilitated glucose transporter member 5 (Homo sapiens, UniProt P22732).
T2 sequence (P22732 whole entry): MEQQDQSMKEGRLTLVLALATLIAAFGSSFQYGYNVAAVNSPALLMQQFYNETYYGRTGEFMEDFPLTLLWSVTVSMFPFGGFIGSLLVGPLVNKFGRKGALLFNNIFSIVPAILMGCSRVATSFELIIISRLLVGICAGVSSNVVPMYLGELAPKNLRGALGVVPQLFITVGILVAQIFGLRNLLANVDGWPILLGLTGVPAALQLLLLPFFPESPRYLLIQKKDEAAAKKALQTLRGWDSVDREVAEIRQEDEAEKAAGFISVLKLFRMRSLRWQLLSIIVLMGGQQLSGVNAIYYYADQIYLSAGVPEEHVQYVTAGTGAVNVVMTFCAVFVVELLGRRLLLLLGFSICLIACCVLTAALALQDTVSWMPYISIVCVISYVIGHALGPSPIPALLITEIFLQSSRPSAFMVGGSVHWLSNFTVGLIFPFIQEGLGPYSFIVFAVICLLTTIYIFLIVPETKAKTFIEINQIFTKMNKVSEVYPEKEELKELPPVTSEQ
The assay can be described thus: Inhibition of GLUT5-mediated [14C]D-fructose uptake in human MDA-MB-231 cells by liquid scintillation counting.

Assay [4] deals with T2, Solute carrier family 2, facilitated glucose transporter member 5. The assay can be described thus: Inhibition of GLUT5-mediated [14C]D-fructose uptake in human MCF7 cells by liquid scintillation counting.

For orientation: Ki means the dissociation constant of the complex between target and ligand, obtained from inhibition or displacement. High values mean weaker binding, low ones tighter binding.

For `OCC1(O)O[C@H](CF)[C@@H](O)[C@@H]1O` (some centres undefined), the Ki came out at 6210 µM in assay [1], 916 µM in assay [2], 330 µM in assay [3] and 154 µM in assay [4].
